Results as given in US20130046098A1, “KINASE INHIBITORS” (THE UNIVERSITY OF MANCHESTER, priority 2009, published 2013).
Entries after “also recorded” stand apart in the source; their conditions may differ.

Key:
recombinant ROCK = test: In vitro ROCK activity assay (Cyclex Rho-kinase immunoassay); type: biochemical; conditions: FIG. 2A bar chart
Experimental: A specific assay was used to evaluate the ability of the compounds of the invention to inhibit ROCK. Rho-kinase activity was determined using an immunoassay as recommended by the manufacturer (Cyclex Co., Ltd., Nagano, Japan). Briefly, […] samples containing 10 mUnit (1 Unit incorporates 1 nmol of phosphate into GST-MBS/MYPT1 per minute at 30° C.) of recombinant ROCK with or without the compounds of the invention were aliquoted into a 96-well plate (100 μl/well), pre-coated with threonine Rho-kinase phosphorylation substrate. After 30 min incubation at 30° C., the plate was washed three times with PBS then incubated with 100 μl/well of HRP conjugated anti-phospho-specific antibody for 1 h at room temperature. The amount of phosphorylated substrate was determined by adding 100 μl/well of substrate reagent for 10 min and the reaction was terminated by adding 100 μl/well of the stop solution. The absorbance was measured on a 96-well plate reader at 450 nm (Dynex Technologies, West Sussex, UK). Each data point was performed in triplicate and the assay was repeated twice.

ROCK1 = ROCK1 (Homo sapiens, UniProt Q13464); test: SelectScreen additional single point analysis; conditions: 10 μM
Chain of ROCK1 (Q13464 whole entry): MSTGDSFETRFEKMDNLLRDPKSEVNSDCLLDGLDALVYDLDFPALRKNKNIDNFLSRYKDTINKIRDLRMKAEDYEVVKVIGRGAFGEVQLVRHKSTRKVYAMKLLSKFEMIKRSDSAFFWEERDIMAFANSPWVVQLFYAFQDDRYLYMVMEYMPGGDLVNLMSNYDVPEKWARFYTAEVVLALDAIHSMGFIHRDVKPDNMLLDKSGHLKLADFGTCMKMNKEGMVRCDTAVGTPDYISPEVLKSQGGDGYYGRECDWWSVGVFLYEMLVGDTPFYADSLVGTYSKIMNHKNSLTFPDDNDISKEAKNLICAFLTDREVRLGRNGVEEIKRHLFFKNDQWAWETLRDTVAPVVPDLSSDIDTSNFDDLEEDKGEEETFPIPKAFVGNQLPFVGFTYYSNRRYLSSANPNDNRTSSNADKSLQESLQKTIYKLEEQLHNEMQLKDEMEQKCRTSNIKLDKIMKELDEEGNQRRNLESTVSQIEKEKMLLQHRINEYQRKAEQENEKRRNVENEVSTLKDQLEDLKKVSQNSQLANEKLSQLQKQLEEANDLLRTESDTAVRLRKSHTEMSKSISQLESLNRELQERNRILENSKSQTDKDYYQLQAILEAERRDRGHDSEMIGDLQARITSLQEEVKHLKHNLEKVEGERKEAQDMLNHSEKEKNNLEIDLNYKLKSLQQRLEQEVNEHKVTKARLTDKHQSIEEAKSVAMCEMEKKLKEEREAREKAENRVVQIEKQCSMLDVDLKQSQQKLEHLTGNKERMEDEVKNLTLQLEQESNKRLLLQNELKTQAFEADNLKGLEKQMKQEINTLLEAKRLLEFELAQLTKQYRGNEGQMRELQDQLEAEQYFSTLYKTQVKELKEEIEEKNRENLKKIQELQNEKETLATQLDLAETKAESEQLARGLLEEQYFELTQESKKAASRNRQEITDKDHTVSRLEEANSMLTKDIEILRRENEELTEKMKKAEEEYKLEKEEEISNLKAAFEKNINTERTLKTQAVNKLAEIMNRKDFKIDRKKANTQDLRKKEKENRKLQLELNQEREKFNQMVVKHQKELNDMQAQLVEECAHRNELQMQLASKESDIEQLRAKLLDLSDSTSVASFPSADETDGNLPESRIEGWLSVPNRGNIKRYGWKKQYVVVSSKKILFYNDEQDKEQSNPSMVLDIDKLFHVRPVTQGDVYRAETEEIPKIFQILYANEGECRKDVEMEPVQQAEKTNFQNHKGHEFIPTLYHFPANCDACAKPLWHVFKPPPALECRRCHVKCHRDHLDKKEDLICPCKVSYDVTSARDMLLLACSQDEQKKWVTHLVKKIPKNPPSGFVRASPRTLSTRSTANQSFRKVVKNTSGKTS

ROCK2 = ROCK2 (Homo sapiens, UniProt O75116); test: SelectScreen additional single point analysis; conditions: 10 μM
Chain of ROCK2 (O75116 whole entry): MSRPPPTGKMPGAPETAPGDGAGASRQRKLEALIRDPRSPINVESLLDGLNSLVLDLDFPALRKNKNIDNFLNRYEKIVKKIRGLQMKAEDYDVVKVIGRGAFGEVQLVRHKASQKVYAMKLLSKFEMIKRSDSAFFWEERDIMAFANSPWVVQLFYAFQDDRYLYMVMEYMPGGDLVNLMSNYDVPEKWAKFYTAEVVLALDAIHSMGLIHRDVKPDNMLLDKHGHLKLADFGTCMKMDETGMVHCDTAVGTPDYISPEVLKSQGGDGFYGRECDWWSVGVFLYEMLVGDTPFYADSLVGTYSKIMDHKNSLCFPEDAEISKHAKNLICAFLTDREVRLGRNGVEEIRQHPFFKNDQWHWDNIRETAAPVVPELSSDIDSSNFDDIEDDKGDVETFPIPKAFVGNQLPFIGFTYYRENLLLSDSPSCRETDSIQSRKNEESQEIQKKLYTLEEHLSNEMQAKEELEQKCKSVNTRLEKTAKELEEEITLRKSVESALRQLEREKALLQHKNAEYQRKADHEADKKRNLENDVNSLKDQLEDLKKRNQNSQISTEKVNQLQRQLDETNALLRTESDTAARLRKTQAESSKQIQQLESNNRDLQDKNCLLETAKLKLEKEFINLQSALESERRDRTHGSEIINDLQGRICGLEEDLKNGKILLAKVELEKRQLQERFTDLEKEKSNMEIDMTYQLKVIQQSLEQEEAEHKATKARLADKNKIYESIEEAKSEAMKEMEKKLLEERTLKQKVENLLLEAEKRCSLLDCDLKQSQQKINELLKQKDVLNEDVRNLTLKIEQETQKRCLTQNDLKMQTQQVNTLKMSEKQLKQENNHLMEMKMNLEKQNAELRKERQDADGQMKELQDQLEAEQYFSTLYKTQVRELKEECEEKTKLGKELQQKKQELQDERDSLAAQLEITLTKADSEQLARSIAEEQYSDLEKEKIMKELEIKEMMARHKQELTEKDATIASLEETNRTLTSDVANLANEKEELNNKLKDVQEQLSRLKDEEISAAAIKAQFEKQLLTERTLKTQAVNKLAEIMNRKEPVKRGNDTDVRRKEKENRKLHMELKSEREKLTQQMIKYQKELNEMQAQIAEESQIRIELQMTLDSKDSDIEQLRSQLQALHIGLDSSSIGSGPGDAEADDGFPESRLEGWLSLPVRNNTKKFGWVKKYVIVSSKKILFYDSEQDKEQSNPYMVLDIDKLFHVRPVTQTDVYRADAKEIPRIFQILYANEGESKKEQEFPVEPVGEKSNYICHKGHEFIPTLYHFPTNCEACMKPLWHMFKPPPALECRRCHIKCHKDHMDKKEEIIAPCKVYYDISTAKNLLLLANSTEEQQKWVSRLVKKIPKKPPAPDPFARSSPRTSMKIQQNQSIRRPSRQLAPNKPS

p38 alpha (MAPK14) = p38 alpha (MAPK14) (Homo sapiens, UniProt Q16539); test: SelectScreen in vitro kinase profiling, single point; conditions: additional single point analysis, 10 μM
Chain of p38 alpha (MAPK14) (Q16539 whole entry): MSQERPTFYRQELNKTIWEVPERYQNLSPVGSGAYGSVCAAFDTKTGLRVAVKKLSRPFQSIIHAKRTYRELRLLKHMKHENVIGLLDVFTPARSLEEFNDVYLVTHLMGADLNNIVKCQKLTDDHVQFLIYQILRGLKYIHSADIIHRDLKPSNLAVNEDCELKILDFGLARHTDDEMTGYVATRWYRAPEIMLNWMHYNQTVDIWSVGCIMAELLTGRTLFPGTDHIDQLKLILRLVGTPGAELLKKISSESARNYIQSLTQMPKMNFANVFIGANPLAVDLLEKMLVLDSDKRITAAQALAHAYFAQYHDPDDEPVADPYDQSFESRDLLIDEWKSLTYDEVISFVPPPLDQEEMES

HGK (MAP4K4) = HGK (MAP4K4) (Homo sapiens, UniProt O95819); test: as above; conditions: additional single point analysis, 10 μM
Chain of HGK (MAP4K4) (O95819 whole entry): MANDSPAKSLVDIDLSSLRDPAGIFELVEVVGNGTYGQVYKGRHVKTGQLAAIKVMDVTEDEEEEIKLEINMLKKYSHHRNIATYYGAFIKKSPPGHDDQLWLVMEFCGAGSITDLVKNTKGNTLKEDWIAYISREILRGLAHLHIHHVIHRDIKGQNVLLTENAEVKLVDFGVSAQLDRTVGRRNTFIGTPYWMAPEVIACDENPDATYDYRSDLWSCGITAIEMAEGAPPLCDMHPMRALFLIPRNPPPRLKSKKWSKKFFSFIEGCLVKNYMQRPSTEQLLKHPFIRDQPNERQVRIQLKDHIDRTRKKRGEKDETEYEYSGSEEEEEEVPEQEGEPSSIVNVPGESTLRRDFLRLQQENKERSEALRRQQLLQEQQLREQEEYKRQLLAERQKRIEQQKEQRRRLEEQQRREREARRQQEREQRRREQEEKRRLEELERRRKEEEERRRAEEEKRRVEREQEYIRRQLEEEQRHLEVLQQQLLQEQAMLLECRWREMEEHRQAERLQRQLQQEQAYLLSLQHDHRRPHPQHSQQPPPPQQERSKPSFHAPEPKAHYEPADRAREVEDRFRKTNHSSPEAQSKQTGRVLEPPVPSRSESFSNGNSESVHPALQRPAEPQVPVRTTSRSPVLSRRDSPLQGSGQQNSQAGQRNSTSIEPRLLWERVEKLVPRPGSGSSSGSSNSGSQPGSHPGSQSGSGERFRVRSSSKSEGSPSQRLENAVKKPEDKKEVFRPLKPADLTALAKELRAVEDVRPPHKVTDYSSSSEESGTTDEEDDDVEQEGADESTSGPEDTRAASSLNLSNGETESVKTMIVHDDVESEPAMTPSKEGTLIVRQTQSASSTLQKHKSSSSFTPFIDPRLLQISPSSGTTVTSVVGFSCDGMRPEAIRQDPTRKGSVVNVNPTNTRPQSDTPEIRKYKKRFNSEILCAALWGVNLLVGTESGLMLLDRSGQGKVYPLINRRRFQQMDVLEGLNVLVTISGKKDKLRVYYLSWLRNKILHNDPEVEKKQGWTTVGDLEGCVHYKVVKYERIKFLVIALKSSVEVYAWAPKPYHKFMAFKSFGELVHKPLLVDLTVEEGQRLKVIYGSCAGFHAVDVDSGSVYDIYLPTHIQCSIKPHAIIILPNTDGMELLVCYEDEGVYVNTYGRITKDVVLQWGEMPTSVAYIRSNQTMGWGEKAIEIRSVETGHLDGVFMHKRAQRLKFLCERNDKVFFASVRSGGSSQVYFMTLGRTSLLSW

Aurora A = molecular target: T1, Aurora A (Homo sapiens, UniProt O14965); test: as above; conditions: additional single point analysis, 10 μM
T1 sequence (O14965 1-403): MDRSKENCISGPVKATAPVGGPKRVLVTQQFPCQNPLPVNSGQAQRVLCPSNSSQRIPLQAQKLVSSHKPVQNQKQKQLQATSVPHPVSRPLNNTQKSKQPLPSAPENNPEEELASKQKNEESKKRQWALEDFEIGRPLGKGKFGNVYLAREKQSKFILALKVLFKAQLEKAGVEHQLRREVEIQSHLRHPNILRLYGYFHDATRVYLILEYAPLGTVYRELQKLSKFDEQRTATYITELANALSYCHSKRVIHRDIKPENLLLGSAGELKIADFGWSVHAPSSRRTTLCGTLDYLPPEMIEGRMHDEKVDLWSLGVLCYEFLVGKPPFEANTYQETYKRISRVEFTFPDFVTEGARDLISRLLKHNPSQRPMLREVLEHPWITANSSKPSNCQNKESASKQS

[1] = system: GEF16 transfected NIH3T3 cells; test: Cell proliferation assay (Celltiter Aq96); type: cell-based, mouse; conditions: 10 μM, Cell AQ96 absorbance at 6, 8 and 10 days
Experimental: FIG. 1D is a bar chart showing the results of Cell AQ^96 assessment of the growth of GEF16 and vector transfected cells seeded in a 96 well plate at 1×10^3 cells per well. These were incubated for 3 days followed by addition of reagent to determine the starting point for the assay. 10 μM of either Y27632 or DMSO were then added to wells containing both cell types and Cell AQ^96 absorbance measured at 6, 8 and 10 days. At day 3 cells were 100% confluent which was determined by phase contrast visual inspection of the cultures at ×20 magnification;
Cell proliferation was investigated using Celltiter Aq^96 reagent (Promega, Southampton, UK) according to the manufacturer's protocol. Cells were seeded into a 96-well plate at a density of 1×10^3 cells/well allowing 3 wells per data point and allowed to attach for a set period. Following this, the initial starting point 490 nm absorbance was determined by adding 20 μl of Aq^96 reagent to each well and incubating for 4 h at 37° C. in 5% CO2 (96-well plate reader, Dynex Technologies, West Sussex, UK). The various compounds (Y27632 or compounds of the invention) or DMSO control were then added to duplicate wells and the absorbance determined in the same way at the time points indicated. Each data set shown is representative of three separate experiments.

[2] = system: single transformed colony derived GEF16 NIH3T3 cells; test: Growth of cell populations derived from single GEF16 transformed colonies; type: cell-based, mouse; conditions: FIG. 5A
Experimental: FIG. 5 illustrates that the growth suppressive effects of YA1 on single transformed colony derived GEF16 NIH3T3 cells and polyclonal Ras transformed NIH3T3 cells are more pronounced when these are co-cultured with non-transformed cells. In FIG. 5A single transformed colonies were picked from 10 day cultures of GEF16 polyclonal NIH3T3 cells and expanded. These cells were then seeded at 2.0×10^5 cells per 30 mm dish and treated with 10 μM of YA1 or DMSO control either immediately or following 10 days in culture. Duplicate wells were harvested for flow cytometry. In FIG. 5B a total of 2×10^5 cells per well were plated consisting of increasing numbers of non-transformed vector cells co-cultured with decreasing numbers of single transformed colony derived GEF16 cells. These were treated with 10 μM of either YA1 or DMSO for 10 days. In producing the results shown in FIG. 5C the same co-culture experiment described in connection with FIG. 5B was carried out substituting polyclonal Ras transformed NIH3T3 cells for GEF16 transformed cells.
Single transformed colonies were picked from GEF16 polyclonal NIH3T3 cells and expanded according to the methods described above. Expanded cell populations were plated and a compound of the invention (YA1) added either immediately or after 10 days when the cells were post-confluent.

PKC epsilon = molecular target: T2, PKC epsilon (Homo sapiens, UniProt Q02156); conditions: 10 μM; cited from earlier work
T2 sequence (Q02156 1-737): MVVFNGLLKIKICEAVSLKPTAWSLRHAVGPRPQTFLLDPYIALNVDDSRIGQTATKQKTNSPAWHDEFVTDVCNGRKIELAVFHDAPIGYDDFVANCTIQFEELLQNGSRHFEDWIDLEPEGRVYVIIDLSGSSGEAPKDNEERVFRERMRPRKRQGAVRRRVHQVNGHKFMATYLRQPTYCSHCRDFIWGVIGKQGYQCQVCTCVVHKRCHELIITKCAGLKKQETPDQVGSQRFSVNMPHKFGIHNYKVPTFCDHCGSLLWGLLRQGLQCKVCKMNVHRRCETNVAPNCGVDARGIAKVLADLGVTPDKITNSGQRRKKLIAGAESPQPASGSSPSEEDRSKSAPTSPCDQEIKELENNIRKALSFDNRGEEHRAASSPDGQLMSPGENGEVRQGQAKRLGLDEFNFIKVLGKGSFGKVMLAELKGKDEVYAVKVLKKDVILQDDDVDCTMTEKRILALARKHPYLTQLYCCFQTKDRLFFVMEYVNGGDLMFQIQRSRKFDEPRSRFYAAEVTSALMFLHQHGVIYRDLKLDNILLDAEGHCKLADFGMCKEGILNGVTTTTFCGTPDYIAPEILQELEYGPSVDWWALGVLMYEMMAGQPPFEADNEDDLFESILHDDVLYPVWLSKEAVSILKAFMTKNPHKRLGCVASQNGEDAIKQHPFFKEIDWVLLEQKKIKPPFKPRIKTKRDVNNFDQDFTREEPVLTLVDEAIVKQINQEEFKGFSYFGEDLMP

[3] = system: polyclonal GEF16 transfected NIH3T3 cells; test: Transformed colony forming assay (Toluidine blue)
Experimental: Following this incubation period the compound was then removed from the culture media and cells maintained in normal growth media for a further 10 days before the photographs shown were taken.
In FIG. 4A polyclonal GEF16 transfected cells were seeded at 2.0×10^5 cells per 30 mm dish and incubated over night. […] After a further 10 days culture in the absence of inhibitors the cells were stained with Toluidine blue and photographed to produce the images shown. […] These were incubated for 3 or 6 days then stained with Toluidine blue before being photographed.
Medium (containing the compound of interest—either Y27632 or the selected compounds of the invention—or DMSO control) was changed every 2 days. Formation of foci was analysed by Toluidine blue (Sigma-Aldrich, Poole, UK) staining after 10 days growth post confluence. […] Each assay was carried out in triplicate and the results shown are representative of at least three separate experiments.

**Q.** With `CN(C(=O)c1ccc(CNC(=O)OC(C)(C)C)cc1)c1ccncc1` [YA4, 4-(N-Methyl-N-pyridin-4-ylcarbamoyl)benzylcarbamic acid tert-butyl ester] as the compound, how does the “ROCK inhibitory activity compared to Y27632” value (recombinant ROCK) read?
**A.** The value was “lower ROCK inhibitory activity; also recorded: significantly less activity against ROCK than did their structural analogue Y27632”.

**Q.** What about the “activity against ROCK1” value (ROCK1) of the same compound?
**A.** Its value is “less activity against ROCKs than YA2”.

**Q.** What about the “activity against ROCK2” value (ROCK2) of the same compound?
**A.** Its value is “less activity against ROCKs than YA2”.

**Q.** And the “activity against p38” value (p38 alpha (MAPK14))?
**A.** Its value is “significant activity against p38, HGK and Aurora A”.

**Q.** What about the “activity against HGK” value (HGK (MAP4K4)) of the same compound?
**A.** Its value is “significant activity against p38, HGK and Aurora A”.

**Q.** And the “activity against Aurora A” value (Aurora A)?
**A.** Its value is “significant activity against p38, HGK and Aurora A”.

**Q.** For `C[C@@H](N)[C@H]1CC[C@H](C(=O)Nc2ccncc2)CC1` [Compound Y27632, reference compound], which “growth of confluent GEF16 transformed cells” value [1] is on record?
**A.** Its value is “inhibits the growth of confluent GEF16 transformed cells”.

**Q.** And the “effect on single colony derived GEF16 transformed cells grown in the absence of non-transformed cells” value [2]?
**A.** The value was “little or no effect”.

**Q.** And the “inhibition of PKC epsilon” value (PKC epsilon)?
**A.** Its value is 94%.

**Q.** What about the “transformed focus formation after treatment, re-seeding and chase” value ([3]; 10 μM for 2-10 days, re-seeded at 2×10^5, 10 day chase without inhibitor) of the same compound?
**A.** Its value is “able to suppress transformed focus formation”.

**Q.** And the “formation of GEF16 transformed colonies” value ([3]; 10 μM, 10 days, post confluent cultures)?
**A.** Its value is “suppresses the formation of GEF16 transformed NIH3T3 cell colonies”.

**Q.** And the “effect on pre-formed transformed colonies” value ([3]; colonies formed for 10 days, then 10 μM or 20 μM for 3 and 6 days)?
**A.** The value was “very little effect on pre-formed transformed colonies; also recorded: Neither Y27632 nor the other compounds of the invention tested (data not shown) exhibited this property”.

**Q.** Which “activity against GEF16 transformed colonies” value ([3]; further studies by the inventors) does the source give for `C[S+]([O-])c1ccc(-c2nc(-c3ccncc3)c(-c3ccc(F)cc3)[nH]2)cc1` (stereo not shown) [SB203580, reference compound] here?
**A.** Its value is “some activity against GEF16 transformed colonies although this was much less than the compound of the invention YA1”.
